In patent US5854015A, “Method of making pure 3R-3'R stereoisomer of zeaxanthin for human ingestion” (priority 1995, dated 1998):
Values belong to the compound of their own block, whether it stands above or below them.

Assays:
[1] = in vivo
Description: Birds in the C+ group are fed a standard commercial diet which contains several carotenoids; this diet also contains synthetic alpha-tocopherol (Vitamin E) as an additive.

[2] = Pasteurization of cell culture by heating; assay type: physicochemical; conditions: stabilizers added
Description: After the stabilizing compounds are added, a bacterial cell culture can be pasteurized by heating to 55° C. for 25 minutes.
After the stabilizing compounds are added, the cell culture is pasteurized by heating to 55° C. for 25 to 50 minutes.

[3] = Feeding of F. multivorum cell paste to birds or fish; assay type: in vivo; conditions: cell paste fed directly
Description: Although this option has not yet been fully evaluated, it is possible that the Flavobacterium multivorum cells themselves, in intact form and possibly even in a viable state, may be suitable for direct ingestion by humans. A substantial number of human foods (including cheese, yogurt, beer, etc.) contain viable or killed-but-intact microbial cells, and there is no known pathogenicity associated with the F. multivorum cells isolated by Applied Food Biotechnology, Inc. They were isolated from a relatively cold artesian waterway, and since they are adapted to living in cold water, they cannot survive or reproduce well at temperatures inside the human body. […] When fed directly in the form of a cell paste to animals such as birds or fish, these cells appear to be well-suited as delivery vehicles for zeaxanthin.

[4] = test system: chickens; conditions: cited from earlier work
[5] = per-weight basis; cited from earlier work
[6] = of all known carotenoids; cited from earlier work
[7] = macular degeneration; cited from earlier work
[8] = cited from earlier work

SMILES: CC1=C(/C=C/C(C)=C/C=C/C(C)=C/C=C/C=C(C)/C=C/C=C(C)/C=C/C2=C(C)C[C@@H](O)CC2(C)C)C(C)(C)C[C@H](O)C1 [zeaxanthin, 3,3'-dihydroxy-β-β-carotene]
Concentration in retina [1]: 4.7 ng per mg retina | damage to zeaxanthin on pasteurization ([2]; 55° C. for 25 to 50 minutes): without damaging the zeaxanthin | damage to zeaxanthin on pasteurization ([2]; 55° C. for 25 minutes): without damaging the zeaxanthin | absorption and tissue deposition after feeding [3]: absorbed into the bloodstream and deposited into various tissues at expected and appropriate tissue locations | coloration of chickens fed cells and their zeaxanthin pigment ([4]; cells ATCC 21081 and 21588, U.S. Pat. No. 3,891,504): caused suitable coloration | coloring potency relative to lutein ([4]; per-weight basis, skin and egg yolks): 2-3 times | effectiveness in imparting color relative to lutein [5]: several times more effective

SMILES: CC(C)=CCC/C(C)=C/C=C/C(C)=C/C=C/C(C)=C/C=C/C=C(C)/C=C/C=C(C)/C=C/C=C(\C)CCC=C(C)C [lycopene]
singlet oxygen quenching [6]: best singlet oxygen quencher of all known carotenoids

Concentration in retina [1]: 5.8 ng per mg retina
SMILES: CC1=C(/C=C/C(C)=C/C=C/C(C)=C/CO)C(C)(C)CCC1 [Retinol (Vit. A)]
benefits in the retina [7]: very limited

Concentration in retina [1]: 15.6 ng per mg retina
SMILES: Cc1c(C)c2c(c(C)c1O)CCC(C)(CCCC(C)CCCC(C)CCCC(C)C)O2 (stereo not drawn) [alpha-Tocopherol]
benefits in the retina [7]: very limited

Concentration in retina [1]: 1.0 ng per mg retina
SMILES: CC1=C[C@H](O)CC(C)(C)[C@H]1/C=C/C(C)=C/C=C/C(C)=C/C=C/C=C(C)/C=C/C=C(C)/C=C/C1=C(C)C[C@@H](O)CC1(C)C [Lutein]

Concentration in retina [1]: 5.0 ng per mg retina
SMILES: Cc1c(O)cc2c(c1C)O[C@](C)(CCC[C@H](C)CCC[C@H](C)CCCC(C)C)CC2 [gamma-Tocopherol]

Detection of β-Carotene in retinas [1]: No β-Carotene was detected
SMILES: CC1=C(/C=C/C(C)=C/C=C/C(C)=C/C=C/C=C(C)/C=C/C=C(C)/C=C/C2=C(C)CCCC2(C)C)C(C)(C)CCC1 [β-Carotene]
benefits in the retina [7]: very limited

SMILES: CC1=C(/C=C/C(C)=C/C=C/C(C)=C/C=C/C=C(C)/C=C/C=C(C)/C=C/C2=C(C)C(=O)CCC2(C)C)C(C)(C)CCC1=O [Canthaxanthin]
Concentration in retina [1]: 1.7 ng per mg retina | crystal formation in retinal tissue ([8]; in vivo): can cause crystal formation which can destroy retinal cells and tissue | deposition in human skin ([8]; in vivo): is deposited in human skin | displacement of lutein in retinal tissue ([8]; in vivo): can displace lutein | retinal toxicity ([8]; ingested): shown to cause retinal maculopathy

SMILES: CC(C=CC=C(C)C=CC1=C(C)CCCC1(C)C)=CC=CC=C(C)C=CC=C(C)C=CC1C(C)=CC(O)CC1(C)C (stereo not drawn) [alpha-Cryptoxanthan]
Concentration in retina [1]: 1.4 ng per mg retina
